Where two headings read alike, the source gives them in different places.
Legend:
ERα/β = details: read-out: Transactivation EC50, T47D-kBluc; ERE-luciferase; cells express ERα and ERβ; mean ± SEM (n)
Procedure: (§1) Cells were incubated overnight with the various compounds and luciferase activity was then determined in cell lysates. Transactivation activity of the human mineralocorticoid receptor (MR) and peroxisome proliferator-activated receptors (PPAR-γ and PPAR-δ) used the fluorimetric Gene Blazer β-lactamase assay system (InVitrogen) following the manufacturer's instructions. Assays were conducted on 384-well plates using a fluorogenic substrate (CCF4-AM, InVitrogen).

PPAR-δ = target: T1, PPAR-δ (Homo sapiens, UniProt Q03181); assay: Gene Blazer β-lactamase transactivation assay, PPAR-δ; type: cell-based
T1 sequence (Q03181 211-441 limits assumed): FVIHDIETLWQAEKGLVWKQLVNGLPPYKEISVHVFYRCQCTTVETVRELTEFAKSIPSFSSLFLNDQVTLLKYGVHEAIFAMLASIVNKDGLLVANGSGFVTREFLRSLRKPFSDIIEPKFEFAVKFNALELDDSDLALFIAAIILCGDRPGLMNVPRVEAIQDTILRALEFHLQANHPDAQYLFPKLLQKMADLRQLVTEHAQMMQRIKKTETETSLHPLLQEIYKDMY
Procedure: as §1

[1] = target: T2, human mineralocorticoid receptor (MR) (Homo sapiens, UniProt P08235); assay: Gene Blazer β-lactamase transactivation assay, MR; type: cell-based; details: data not shown
T2 sequence (P08235 726-984 limits assumed): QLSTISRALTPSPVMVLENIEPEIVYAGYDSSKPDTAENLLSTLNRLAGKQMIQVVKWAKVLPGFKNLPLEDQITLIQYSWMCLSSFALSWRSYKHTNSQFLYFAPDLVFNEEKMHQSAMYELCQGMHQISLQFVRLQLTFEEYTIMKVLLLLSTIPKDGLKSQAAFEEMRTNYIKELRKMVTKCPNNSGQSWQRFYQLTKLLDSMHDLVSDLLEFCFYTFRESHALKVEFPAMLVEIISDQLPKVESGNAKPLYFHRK
Procedure: as §1

PPAR-γ = PPAR-γ (Homo sapiens, UniProt P37231); details: data not shown
Sequence of PPAR-γ (P37231 238-505 limits assumed): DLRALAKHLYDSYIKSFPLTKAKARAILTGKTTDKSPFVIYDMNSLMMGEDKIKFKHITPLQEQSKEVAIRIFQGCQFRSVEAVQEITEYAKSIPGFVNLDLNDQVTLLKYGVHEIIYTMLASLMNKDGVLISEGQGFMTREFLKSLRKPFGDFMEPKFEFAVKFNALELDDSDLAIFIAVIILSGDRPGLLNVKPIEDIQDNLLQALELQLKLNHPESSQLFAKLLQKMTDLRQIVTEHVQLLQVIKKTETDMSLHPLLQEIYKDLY
Procedure: as §1

[2] = test system: glucocorticoid receptor (GR); details: data not shown
Procedure: as §1

[3] = test system: LPS-induced shock in CD1 mice; details: for Serum levels of TNFα: male CD-1 mice, LPS 0.5 mg
Procedure: Six-week-old CD1 mice (Charles River, Calco, Italy) were kept under standard laboratory (nonspecific pathogen free) conditions at the University of Catania, School of Medicine, and were housed in a controlled environment and provided with standard rodent chow and water. Animal care and use was in compliance with all applicable regulations on protection of animals used for experimental and other scientific purposes.
To induce lethal endotoxemia, the mice were injected i.p. with 1 mg LPS (Sigma Chimica, Milan, Italy, code L6011, Lot K4096). […] In some studies (performed by Harbor Biosciences) male mice (n = 4 per group) were used and serum was taken 2 hours after LPS (0.5 mg) challenge, to measure levels of TNFα by ELISA.
All P-values of less than .05 were considered significant. For statistical analysis each group is compared to that of vehicle-treated control.

[4] = test system: PLP(139–151)-induced EAE in female SJL/J mice
Excerpt: Mice Female SJL/J mice (6 to 8 weeks of age; Charles River Italia, Udine, Italy) were maintained in a pathogen-free vivarium at the University of Catania, School of Medicine (Catania, Italy) receiving ad libitum sterilized food and water, and were adapted to the ambient environment for at least 7 days before the start of the study. Animal care and use was in compliance with all applicable regulations for the protection of animals used for experimental and other scientific purposes.
Disease symptoms were monitored daily and scored in a blinded manner using the following scale: 0: no illness, 1: flaccid tail, 2: moderate paraparesis, 3: severe paraparesis, 4: moribund state, 5: death. Mice were randomized to each experimental group before immunization to induce EAE. […] Statistical analysis of cumulative clinical scores was performed by ANOVA analysis for unpaired data. A P-value <.05 was considered to be statistically significant. For statistical analysis, the mice that succumbed to EAE were assigned 5 only for the day of death and then were deleted from the experimental group.

[5] = test system: CAR-induced pleurisy in CD1 male mice; details: 40 mg/kg suspension s.c. 24 h and 1 h before CAR, vs vehicle
[6] = test system: PLP(139–151)-induced EAE in female SJL/J mice; details: 40 mg/kg soluble formulation (cyclodextran) s.c. daily from onset
Procedure: Mice Pathogen free female SJL/J mice (6–8 weeks old) were used for these studies.
The mice were assessed daily for clinical signs of EAE according to the following scale: 0: no signs; 1: limp tail or mild hind limb weakness; 2: moderate hind limb weakness or mild ataxia; 3: moderately severe hind limb weakness; 4: severe hind limb weakness or mild forearm weakness or moderate ataxia; 5: paraplegia with no more than moderate forelimb weakness; 6: paraplegia with severe forelimb weakness or severe ataxia or moribund condition.

in vivo = details: mouse
[7] = humans, injection of 100–200 mg suspension formulation, for several weeks; ref Stickney et al., in preparation; cited from earlier work
[8] = soluble formulation (cyclodextran), Harbor Biosciences, unpublished observations

CCCc1c(OCCCOc2ccc(OCC(=O)O)cc2)ccc(C(C)=O)c1O [L165,041, reference compound]
EC50 (PPAR-δ; reference compound): 1.1 nM

C[C@]12CC[C@H]3[C@@H](CC=C4C[C@@H](O)CC[C@@]43C)[C@@H]1CC[C@@H]2O [5-AED, androst-5-ene-3β,17β-diol]
Transactivation of human mineralocorticoid receptor [1]: does not transactivate
Transactivation of PPAR-δ (PPAR-δ; data not shown): does not transactivate
Transactivation of PPAR-γ (PPAR-γ): does not transactivate
Transactivation of human glucocorticoid receptor [2]: does not transactivate
Serum levels of TNFα ([3]; 0.4 mg/kg s.c.): not effective
Serum levels of TNFα ([3]; 4.0 mg/kg s.c.): not effective
Lethality ([3]; 40 mg/kg s.c. given 4 hours after LPS, data not shown): 100%
Lethality ([3]; 40 mg/kg s.c. given 8 hours after LPS, data not shown): 100%
Lethality ([3]; 40 mg/kg s.c. given 24 hours after LPS, data not shown): 100%
Lethality ([3]; 40 mg/kg s.c. given 24 hours before LPS (1 mg i.p.), 72 h, vehicle 100%): 50%
Serum levels of TNFα ([3]; 40 mg/kg suspension s.c., vs vehicle, P < .05): significantly (P < .05) reduced
Mortality ([4]; 0.4 mg/kg suspension s.c., after day 17): 6/10
Cumulative disease score ([4]; 0.4 mg/kg suspension s.c., surviving mice only): 14.5 ± 3.7
Lethality ([4]; 4 mg/kg suspension s.c.): No lethality
Cumulative disease score ([4]; 4 mg/kg suspension s.c. from Day 8 to Day 30, trend, vehicle 25.4 ± 9.3): 18.1 ± 9.9
Lethality ([4]; 40 mg/kg suspension s.c.): No lethality
Cumulative disease score ([4]; 40 mg/kg suspension s.c. from Day 8 to Day 30, vehicle 25.4 ± 9.3): 14.4 ± 9.1
Incidence of EAE ([4]; all groups (0.4, 4.0, 40 mg/kg)): 100%
Minimally effective dose ([4]; suspension s.c.): 4 to 40 mg/kg
IL-6 level in pleural rinse ([5]; at 4 and 5 hours): significantly reduced
TNFα level in pleural rinse ([5]; at 4 hours): significantly reduced
EAE clinical score vs vehicle [6]: no significant differences
Time to Cmax (40 mg/kg as suspension, mice): within one hour
Time to Cmax [8]: within minutes
Time to complete clearance [8]: 8 to 12 h
Cmax (in vivo): < 5000 ng/mL
Cmax (in vivo; 40 mg/kg): ~100 ng/mL
concentration at 96 h (in vivo; 40 mg/kg): ~10 ng/mL
Sustained serum levels of 5-AED [7]: ~ 30 ng/mL
